“Also recorded” adds a separate entry of the source.
Columns and labels:
[1] = tested on: phospho-SRSF6 levels in MDA-MB-468 cells; test: Inhibition of phospho-SRSF6 levels in MDA-MB-468 cells (Western blot); format: cell-based; conditions: Homo sapiens, 100 nM, 2 hours, normalized by GAPDH, read-out: % Intensity of p-SRSF6 signal at 100 nM compared to DMSO control
Protocol: FIG. 1: FIG. 1 provides a representative Western blot showing reduction of phosphorylated-SRSF6 (P-SRSF6) in MDA-MB 468 cells by compounds of the invention. GAPDH was probed for by Western blotting to control for equal protein loading and for normalization of samples. The numbers below the blots show percent intensity of P-SRSF6 signal at 100 nM compared to DMSO control.
Assessment of Inhibition of Phospho-SRSF6 Levels in MDA-MB-468 Cells
MDA-MB-468 cells (ATCC, HTB-132) were cultured in DMEM (BioConcept cat. no. 1-26F03) supplemented with 10% FBS (Sigma cat. no. F9665), 1% Na-pyruvate (Sigma cat. no. S8636), 1% Penicillin-Streptomycin (BioConcept cat. no. 4-01F00-H). When cells reached a density of 70% in 6-well plates (TPP cat. no. 92006), they were treated either with the test compound vehicle DMSO, or with experimental compounds at a final concentration of 100 nM for 2 hours. Thereafter, the culture medium was removed and cells were collected by scraping in Lysis Buffer (20 mM Tris HCl pH7.5, 150 mM NaCl, 1 mM EGTA, 1 mM EDTA, 1% Triton and 1% NP-40) containing protease and phosphatase inhibitors (Halt™ Protease&Phosphatase inhibitor cocktail 100× ThermoScientific cat. no. 1861281) and 1 mM PMSF (Fluka cat. no. 93482). Cleared lysates were stored in Eppendorf tubes at −80° C. until use, and protein concentration in lysates was determined using Pierce 660 nm Protein Assay Reagent (ThermoScientific cat. no. 22660). 20 μg proteins were diluted in 4× Laemmli buffer (Biorad cat. no. 161-0747) containing 10% beta-mercaptoethanol, separated by SDS-PAGE using 10% gels, and then transferred to PVDF membranes (Trans Blot Turbo Transfer Pack BioRad cat. no. 1704156) by Trans-Blot® Turbo™ System semidry blotting methodology (BioRad). Primary antibodies were incubated in TBS-0.1% Tween-20 buffer containing 3% BSA Bovine Albumin Fr.V (Millipore cat. no. 81-053-3) overnight at 4° C. The following primary antibodies were used: Mouse anti-phosphoepitope SR proteins clone 1H4 (Millipore cat. no. MABE50) diluted 1:5000, and rabbit anti-GAPDH clone 14C10 (Cell Signaling cat. no. 2118S) to control for equal protein loading, diluted 1:2000. HRP-conjugated secondary antibodies were incubated one hour at room temperature diluted 1:5000 in TBS-0.1% Tween-20 buffer containing 5% nonfat-dried bovine milk (Sigma cat. no. M7409). The following secondary antibodies were used: Goat anti-mouse-HRP (Jackson cat. no. 115-035-146) and goat anti-rabbit-HRP (Jackson cat. no. 111-035-144). Membranes were incubated with ECL Prime Western Blot Detection Reagent (Amersham cat. no. RPN2236) to detect specific signals using Fusion SOLO S device (Vilber Lourmat). Pixel intensity of the phopsho-SRSF6 (MW 55 kDa in reference to markers) and GAPDH (MW 37 kDa) signals in the Western blots were determined using Evolution-Capt image analysis software (v17.01, Vilber Lourmat). DMSO control was used to set the phospho-SRSF6 signal at baseline, phospho-SRSF6 signals for each sample were normalized by the respective GAPDH signals and percent intensity of P-SRSF6 signal at 100 nM compound compared to DMSO control was calculated (see FIG. 1).

recombinant human CLK3 = molecular target: T1, recombinant human CLK3 (Homo sapiens, UniProt P49761); test: CLK3 kinase assay (LANCE Ultra); format: biochemical; conditions: 0.5 nM CLK3, 300 μM ATP, 3 hours at 30° C.
T1 construct: purchased Thermo Fisher Scientific PV3826
In short: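 Recombinant human CLK3 (0.5 nM) phosphorylating ULight-CREBtide (50 nM) with 300 μM ATP for 3 h at 30 °C; stopped with EDTA, detected by LANCE Ultra TR-FRET using Eu-anti-phospho-CREB antibody (2 nM, 1 h). IC50 from sigmoidal 4-parameter fit.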

MDA-MB-231 cells = test: MDA-MB-231 proliferation assay; format: cell-based; conditions: Homo sapiens, 72 hours, YO-PRO-1 readout
In short: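 Cells seeded at 750/well in DMEM with 10% FBS, treated 72 h at 37 °C, 0.5% DMSO final. Cell number read by YO-PRO-1 fluorescence (485/530 nm), normalised to DMSO (100%) and time-of-addition cells (0%); 4-parameter logistic fit with maximum fixed at 100%.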

[2] = tested on: CAL-51 triple-negative breast cancer xenograft; test: CAL-51 triple-negative breast cancer mouse xenograft model; conditions: for tumor volumes smaller compared to the vehicle-treated group: day 21, female NCG mice; for tumor volumes compared with vehicle-treated animals (one-way ANOVA, P<0.05): day 21
Protocol: A pair match was performed when tumors reached an average volume of 100-150 mm^3 to distribute animals into treatment groups (n=8/group), and treatment of the respective groups was initiated. Tumor volumes (expressed in mm^3) were measured twice weekly using a caliper on days 1, 3, 7, 10, 14, 17 and 21 of the treatment period.
To this end, the CAL-51 triple-negative breast cancer xenograft model was used, in which the tumor cells are injected subcutaneously into the flanks of immunodeficient NCG mice (lack functional/mature T, B, and NK cells, and have reduced macrophage and dendritic cell function). […] CAL-51 cells were harvested when they were growing exponentially.
Female NCG mice were used for the study at 8-12 weeks of age (Charles River Laboratories). Mice were inoculated subcutaneously in the flank region with 1×10^7 CAL-51 cells in 50% Matrigel™ in a final injection volume of 0.1 mL/mouse. Once tumors reached an average size of 100-150 mm^3, a pair match was carried out to distribute mice to the different treatment groups.
Tumor volumes (expressed in mm^3) were measured in two dimensions using a caliper on days 1, 3, 7, 10, 14, 17 and 21 of the treatment period. […] Results represent mean values±SEM. Tumor volumes at the conclusion of the study were analyzed by one-way ANOVA analysis to compare treatment groups to the vehicle group. The significance level was set to P<0.05. Calculations were conducted using GraphPad™ Prism version 9.

T1 sequence (P49761 whole entry): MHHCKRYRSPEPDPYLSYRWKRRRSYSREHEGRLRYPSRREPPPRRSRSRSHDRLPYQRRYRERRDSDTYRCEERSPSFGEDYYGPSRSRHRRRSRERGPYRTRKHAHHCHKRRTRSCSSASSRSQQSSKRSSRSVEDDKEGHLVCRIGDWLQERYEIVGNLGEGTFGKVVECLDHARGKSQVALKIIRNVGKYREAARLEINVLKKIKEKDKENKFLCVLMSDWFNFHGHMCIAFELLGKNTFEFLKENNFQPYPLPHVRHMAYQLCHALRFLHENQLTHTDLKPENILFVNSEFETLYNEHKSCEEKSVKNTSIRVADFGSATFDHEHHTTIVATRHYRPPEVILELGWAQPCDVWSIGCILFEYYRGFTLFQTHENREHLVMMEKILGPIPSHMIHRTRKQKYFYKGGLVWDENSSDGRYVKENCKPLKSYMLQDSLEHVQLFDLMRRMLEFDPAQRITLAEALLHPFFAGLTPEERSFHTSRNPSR

| Structure (SMILES) | IC50 (recombinant human CLK3) | GI50 (MDA-MB-231 cells) | activity at 0.1 µM [1] | tumor volumes smaller compared to the vehicle-treated group ([2]; 25 mg/kg daily orally) | tumor volumes smaller compared to the vehicle-treated group ([2]; 60 mg/kg three times a week orally) | tumor volumes compared with vehicle-treated animals (one-way ANOVA, P<0.05) ([2]; 60 mg/kg thrice weekly) | tumor volumes smaller compared to the vehicle-treated group ([2]; 85 mg/kg twice a week orally) | tumor volumes compared with vehicle-treated animals (one-way ANOVA, P<0.05) ([2]; 85 mg/kg twice weekly) | tolerability, as evidenced by body weight assessments ([2]; oral 25, 60 or 85 mg/kg schedules, days 1-21, female NCG mice) |
| --- | --- | --- | --- | --- | --- | --- | --- | --- | --- |
| COCCO/N=C1\c2cc(O[C@H]3CC[C@H](N)CC3)ccc2-c2ncnc(N)c2C1(C)C [Example 29, (6Z)-8-(trans-4-aminocyclohexoxy)-6-(2-methoxyethoxyimino)-5,5-dimethyl-benzo[h]quinazolin-4-amine] | 15.4 nM | 378 nM | 12% | 41.8% | 42.7% | significant; also recorded: significantly smaller | 46.8% | significant; also recorded: significantly smaller | well tolerated |
| CO/N=C1\c2cc(CC3CCNCC3)ccc2-c2ncnc(N)c2C1(C)C [Example 70, (6Z)-6-methoxyimino-5,5-dimethyl-8-(4-piperidylmethyl)benzo[h]quinazolin-4-amine] | 9.1 nM | 630 nM | 34% |  |  |  |  |  |  |
| CO/N=C1\c2cc(C[C@H]3CC[C@H](N)CC3)ccc2-c2ncnc(N)c2C1(C)C [Example 74, (6Z)-8-[(trans-4-aminocyclohexyl)methyl]-6-methoxyimino-5,5-dimethyl-benzo[h]quinazolin-4-amine] | 4.8 nM | 255 nM | 28% |  |  |  |  |  |  |
| CC1(C)/C(=N/OCCC#N)c2cc(O[C@H]3CC[C@@H](N)CC3)ccc2-c2ncnc(N)c21 [Example 83, 3-[(Z)-[4-amino-8-(cis-4-aminocyclohexoxy)-5,5-dimethyl-benzo[h]quinazolin-6-ylidene]amino]oxypropanenitrile] | 4.9 nM | 96.2 nM | 9% |  |  |  |  |  |  |
| CC1(C)/C(=N/OCCO)c2cc(O[C@H]3CC[C@@H](N)CC3)ccc2-c2ncnc(N)c21 [Example 87, 2-[(Z)-[4-amino-8-(cis-4-aminocyclohexoxy)-5,5-dimethyl-benzo[h]quinazolin-6-ylidene]amino]oxyethanol] | 18.7 nM | 255 nM | 10% |  |  |  |  |  |  |
| CC1(C)/C(=N/OC[C@@H]2CN(CCO)C(=O)O2)c2cc(Br)ccc2-c2ncnc(N)c21 [Example 91, (5S)-5-[[(Z)-(4-amino-8-bromo-5,5-dimethyl-benzo[h]quinazolin-6-ylidene)amino]oxymethyl]-3-(2-hydroxyethyl)oxazolidin-2-one] | 5.1 nM | 459 nM | 15% |  |  |  |  |  |  |
| CC1(C)/C(=N/OC[C@@H]2CNC(=O)O2)c2cc(I)ccc2-c2ncnc(N)c21 [Example 93, (5S)-5-[[(Z)-(4-amino-8-iodo-5,5-dimethyl-benzo[h]quinazolin-6-ylidene)amino]oxymethyl]oxazolidin-2-one] | 6.2 nM | 240 nM | 19% |  |  |  |  |  |  |
| CC1(C)/C(=N/OC[C@@H]2CN(CCO)C(=O)O2)c2cc(I)ccc2-c2ncnc(N)c21 [Example 97, (5S)-5-[[(Z)-(4-amino-8-iodo-5,5-dimethyl-benzo[h]quinazolin-6-ylidene)amino]oxymethyl]-3-(2-hydroxyethyl)oxazolidin-2-one] | 1.7 nM | 158 nM | 21% |  |  |  |  |  |  |
| N#CCCO/N=C1\c2cc(O[C@H]3CC[C@H](N)CC3)ccc2-c2ncnc(N)c2C12CCCC2 [Example 102, 3-[(Z)-[4-amino-8-(trans-4-aminocyclohexoxy)spiro[benzo[h]quinazoline-5,1′-cyclopentane]-6-ylidene]amino]oxypropanenitrile] | 2.9 nM | 10.1 nM | 7% |  |  |  |  |  |  |
| CC(F)(F)CCO/N=C1\c2cc(O[C@H]3CC[C@@H](N)CC3)ccc2-c2ncnc(N)c2C1(C)C [Example 115, (6Z)-8-(cis-4-aminocyclohexoxy)-6-(3,3-difluorobutoxyimino)-5,5-dimethyl-benzo[h]quinazolin-4-amine] | 19.4 nM | 102 nM | 17% |  |  |  |  |  |  |

More lines, in order of falling IC50 (recombinant human CLK3), values ahead:

| IC50 (recombinant human CLK3) | GI50 (MDA-MB-231 cells) | Structure (SMILES) | activity at 0.1 µM [1] | tumor volumes smaller compared to the vehicle-treated group ([2]; 25 mg/kg daily orally) | tumor volumes smaller compared to the vehicle-treated group ([2]; 60 mg/kg three times a week orally) | tumor volumes compared with vehicle-treated animals (one-way ANOVA, P<0.05) ([2]; 60 mg/kg thrice weekly) | tumor volumes smaller compared to the vehicle-treated group ([2]; 85 mg/kg twice a week orally) | tumor volumes compared with vehicle-treated animals (one-way ANOVA, P<0.05) ([2]; 85 mg/kg twice weekly) | tolerability, as evidenced by body weight assessments ([2]; oral 25, 60 or 85 mg/kg schedules, days 1-21, female NCG mice) |
| --- | --- | --- | --- | --- | --- | --- | --- | --- | --- |
| 40.7 nM | 971 nM | C[C@H](O)CO/N=C1\c2cc(O[C@H]3CC[C@H](N)CC3)ccc2-c2ncnc(N)c2C1(C)C [Example 79, (2S)-1-[(Z)-[4-amino-8-(trans-4-aminocyclohexoxy)-5,5-dimethyl-benzo[h]quinazolin-6-ylidene]amino]oxypropan-2-ol] | 34% |  |  |  |  |  |  |
| 9.7 nM | 98.5 nM | COCCO/N=C1\c2cc(O[C@H]3CC[C@@H](N)CC3)ccc2-c2ncnc(N)c2C1(C)C [Example 82, (6Z)-8-(cis-4-aminocyclohexoxy)-6-(2-methoxyethoxyimino)-5,5-dimethyl-benzo[h]quinazolin-4-amine] | 15% |  |  |  |  |  |  |
| 9.37 nM | 863 nM | COCCN1C[C@@H](CO/N=C2\c3cc(Br)ccc3-c3ncnc(N)c3C2(C)C)OC1=O [Example 90, (5S)-5-[[(Z)-(4-amino-8-bromo-5,5-dimethyl-benzo[h]quinazolin-6-ylidene)amino]oxymethyl]-3-(2-methoxyethyl)oxazolidin-2-one] | 29% |  |  |  |  |  |  |
| 5.8 nM | 27.6 nM | COCCO/N=C1\c2cc(O[C@H]3CC[C@H](N)CC3)ccc2-c2ncnc(N)c2C12CCCC2 [Example 99, (6Z)-8-(trans-4-aminocyclohexoxy)-6-(2-methoxyethoxyimino)spiro[benzo[h]quinazoline-5,1′-cyclopentane]-4-amine] | 17% |  |  |  |  |  |  |
| 1.2 nM | 4.5 nM | N#CCCO/N=C1\c2cc(O[C@H]3CC[C@@H](N)CC3)ccc2-c2ncnc(N)c2C12CCCC2 [Example 101, 3-[(Z)-[4-amino-8-(cis-4-aminocyclohexoxy)spiro[benzo[h]quinazoline-5,1′-cyclopentane]-6-ylidene]amino]oxypropanenitrile] | 8% |  |  |  |  |  |  |
